Laboratory results published in ChEMBL document CHEMBL4024723, “Design, synthesis, and biological activity of novel tetrahydropyrazolopyridone derivatives as FXa inhibitors with potent anticoagulant activity” (Bioorg Med Chem, 2017).
pIC50: −log10 of the molar value.

How the values were obtained:
Plasma [1] = assay: Anticoagulant activity in human plasma assessed as concentration required to double prothrombin time; type: functional
Plasma [2] = assay: Anticoagulant activity in rabbit plasma assessed as concentration required to double activated partial thromboplastin time; type: functional, Oryctolagus cuniculus
Coagulation factor X [3] = target: T1, Coagulation factor X (Homo sapiens, UniProt P00742); assay: Inhibition of human F10a assessed as decrease in p-nitroaniline cleavage from pefachrome F10a at 5 uM preincubated for 10 mins followed by substrate addition measured after 20 mins relative to control
T1 sequence (P00742 41-179 limits assumed): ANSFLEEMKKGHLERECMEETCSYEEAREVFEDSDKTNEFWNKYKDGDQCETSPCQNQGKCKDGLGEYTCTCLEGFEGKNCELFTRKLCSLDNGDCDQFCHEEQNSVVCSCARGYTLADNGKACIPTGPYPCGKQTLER
T1 sequence (P00742 235-488 limits assumed): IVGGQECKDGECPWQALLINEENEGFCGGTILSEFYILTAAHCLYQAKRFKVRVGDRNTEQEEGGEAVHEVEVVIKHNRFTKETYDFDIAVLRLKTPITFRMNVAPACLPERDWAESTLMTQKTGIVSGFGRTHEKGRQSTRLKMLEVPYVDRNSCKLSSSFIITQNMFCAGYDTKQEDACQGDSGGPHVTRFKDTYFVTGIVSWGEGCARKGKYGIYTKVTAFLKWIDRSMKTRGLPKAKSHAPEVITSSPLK

Plasma [4] = assay: Anticoagulant activity in human plasma assessed as concentration required to double activated partial thromboplastin time; type: functional
Coagulation factor X [5] = target: T1, Coagulation factor X; assay: Inhibition of human F10a assessed as decrease in p-nitroaniline cleavage from pefachrome F10a at 0.5 uM preincubated for 10 mins followed by substrate addition measured after 20 mins relative to control
Plasma [6] = assay: Anticoagulant activity in rabbit plasma assessed as concentration required to double prothrombin time; type: functional, Oryctolagus cuniculus
Rattus norvegicus = assay: Inhibition of thrombus formation in Sprague-Dawley rat at 10 mg/kg, po after 2 hrs relative to control; type: functional
Coagulation factor X [7] = target: T1, Coagulation factor X; assay: Inhibition of human F10a assessed as decrease in p-nitroaniline cleavage from pefachrome F10a preincubated for 10 mins followed by substrate addition measured after 20 mins

inhibition (Coagulation factor X [3]) [%] | inhibition (Coagulation factor X [5]) [%] | pIC50 (Coagulation factor X [7]) | Structure (SMILES) | 2PT (Plasma [1]) [µM] | 2aPTT (Plasma [2]) [µM] | 2aPTT (Plasma [4]) [µM] | 2PT (Plasma [6]) [µM] | inhibition in vivo at 10 mg/kg (Rattus norvegicus) [%]
70.3 | 60.6 | – | COc1ccc(-n2nc(Cn3cnc(-c4ccc(F)cc4)n3)c3c2C(=O)N(c2ccc(N4CCCCC4=O)cc2)CC3)cc1 | 0.9 | 3.1 | 2.3 | 2.1 | –
– | – | – | COc1ccc(-n2nc(-n3cnnc3N)c3c2C(=O)N(c2ccc(N4CCCCC4=O)cc2)CC3)cc1 | 4.1 | 9.1 | 8.3 | 5.9 | –
– | – | – | COc1ccc(-n2nc(Cn3nc(-c4ccccc4)[nH]c3=O)c3c2C(=O)N(c2ccc(N4CCCCC4=O)cc2)CC3)cc1 | 11.7 | 29.8 | 27.1 | 12.4 | –
65.2 | 55.1 | – | COc1ccc(-n2nc(-n3cnnc3C)c3c2C(=O)N(c2ccc(N4CCCCC4=O)cc2)CC3)cc1 | 1.2 | 3 | 2.8 | 1.7 | –
76.4 | 66.1 | – | COc1ccc(-c2ncn(Cc3nn(-c4ccc(OC)cc4)c4c3CCN(c3ccc(N5CCCCC5=O)cc3)C4=O)n2)cc1 | 0.8 | 1.7 | 1.1 | 1.2 | –
– | – | – | COc1ccc(-n2nc(C3=NCCCCN3)c3c2C(=O)N(c2ccc(N4CCCCC4=O)cc2)CC3)cc1 | 10.9 | 26.9 | 24.3 | 12.1 | –
– | – | – | COc1ccc(-n2nc(Cn3cc(C(N)=O)nn3)c3c2C(=O)N(c2ccc(N4CCCCC4=O)cc2)CC3)cc1 | 1.4 | 5.2 | 3.1 | 2.1 | –
– | – | – | CCN(CC)Cc1nncn1-c1nn(-c2ccc(OC)cc2)c2c1CCN(c1ccc(N3CCCCC3=O)cc1)C2=O | 7.2 | 11.5 | 9.6 | 8 | –
– | – | – | COc1ccc(-n2nc(C3=NCCN3)c3c2C(=O)N(c2ccc(N4CCCCC4=O)cc2)CC3)cc1 | 6.2 | 12.5 | 11.8 | 7.5 | –
– | – | – | COc1ccc(-n2nc(Cn3cnc(-c4ccc(Cl)cc4)n3)c3c2C(=O)N(c2ccc(N4CCCCC4=O)cc2)CC3)cc1 | 1.9 | 5 | 3.6 | 3.5 | –
– | – | – | COc1ccc(-n2nc(C3=NCCN3C)c3c2C(=O)N(c2ccc(N4CCCCC4=O)cc2)CC3)cc1 | 8.8 | 12 | 10.5 | 9.6 | –
– | – | – | COc1ccc(-n2nc(C3=NCCCN3)c3c2C(=O)N(c2ccc(N4CCCCC4=O)cc2)CC3)cc1 | 9.4 | 15.4 | 13.5 | 10.8 | –
– | – | – | COc1ccc(-n2nc(C3=NC(C)CN3)c3c2C(=O)N(c2ccc(N4CCCCC4=O)cc2)CC3)cc1 (stereo not given) | 8.9 | 17.1 | 14.6 | 10 | –
99 | 94.5 | 6.85 | COc1ccc(-n2nc(-n3cnnc3CN3CCOCC3)c3c2C(=O)N(c2ccc(N4CCCCC4=O)cc2)CC3)cc1 | 0.5 | 1.2 | 0.7 | 0.9 | 98
– | – | – | COc1ccc(-n2nc(Cn3nnc4ccccc43)c3c2C(=O)N(c2ccc(N4CCCCC4=O)cc2)CC3)cc1 | 25.2 | 39.1 | 31.6 | 29.4 | –
– | – | – | COc1ccc(-n2nc(Cn3cnc(-c4ccncc4)n3)c3c2C(=O)N(c2ccc(N4CCCCC4=O)cc2)CC3)cc1 | 1.6 | 2.1 | 2.3 | 1.9 | –
94 | 86.7 | 6.44 | COc1ccc(-n2nc(Cn3cc(C#N)nn3)c3c2C(=O)N(c2ccc(N4CCCCC4=O)cc2)CC3)cc1 | 0.7 | 1.5 | 1 | 0.9 | 89
– | – | – | COc1ccc(-n2nc(Cn3cnc(-c4ccccc4)n3)c3c2C(=O)N(c2ccc(N4CCCCC4=O)cc2)CC3)cc1 | 2.4 | 5 | 3.6 | 3.4 | –
– | – | – | COc1ccc(-n2nc(Cn3ccnn3)c3c2C(=O)N(c2ccc(N4CCCCC4=O)cc2)CC3)cc1 | 2.4 | 3.9 | 3.7 | 2.1 | –
– | – | – | COc1ccc(-c2nn(Cc3nn(-c4ccc(OC)cc4)c4c3CCN(c3ccc(N5CCCCC5=O)cc3)C4=O)c(=O)[nH]2)cc1 | 17.7 | 23.2 | 19.5 | 19.3 | –
– | – | – | COc1ccc(-n2nc(Cn3cnc(-c4cccnc4)n3)c3c2C(=O)N(c2ccc(N4CCCCC4=O)cc2)CC3)cc1 | 2 | 5.2 | 4.3 | 3.2 | –
– | – | – | COc1ccc(-n2nc(C(N)=O)c3c2C(=O)N(c2ccc(N4CCCCC4=O)cc2)CC3)cc1 [APIXABAN] | 0.8 | 1.4 | 0.9 | 1 | 95
– | – | – | COc1ccc(-n2nc(-n3cnnn3)c3c2C(=O)N(c2ccc(N4CCCCC4=O)cc2)CC3)cc1 | 4.2 | 8.2 | 7.3 | 5.7 | –
– | – | – | COc1ccc(-n2nc(-n3cnnc3CN3CCCC3)c3c2C(=O)N(c2ccc(N4CCCCC4=O)cc2)CC3)cc1 | 7.6 | 18 | 15.6 | 8.4 | –
– | – | – | COc1ccc(-n2nc(-n3cnnc3)c3c2C(=O)N(c2ccc(N4CCCCC4=O)cc2)CC3)cc1 | 4.9 | 13.7 | 10 | 5.7 | –
